Results as given in patent US9067892B2, “Spiroheterocyclic N-oxypiperidines as pesticides” (Syngenta Crop Protection, Inc., priority 2008, dated 2015).
Blank lines part the entries; values can stand above or below the molecule they belong to.

Key:
[1] = tested on: Nilaparvata lugens (brown rice planthopper); experiment: Example B8: Nilaparvata lugens, larvicide, feeding/contact; type: in vivo; conditions: rice seedlings sprayed, N3 nymphs, 6-12 days after treatment
Method: Activity Against Nilaparvata lugens (Brown Rice Planthopper) (Larvicide, Feeding/Contact) Rice seedlings are treated with the diluted test solutions in a spray chamber. After drying, they are infested with 20 N3 nymphs (2 replicates). 6-12 days after the treatment samples are checked for mortality, growth regulation, and effects on the F1 generation.

[2] = tested on: Aphis craccivora (cowpea aphid); experiment: Example B10: Aphis craccivora, mixed population, systemic/feeding; type: in vivo; conditions: 144 h, roots of infested pea seedlings in test solution, 6 days, mortality
Excerpt: 6 days later, samples are checked for mortality.

[3] = tested on: Aphis craccivora (cowpea aphid); experiment: Example B11: translaminar activity against Aphis craccivora; type: in vivo; conditions: 120 h, French bean leaves, aphids on lower side, upper side painted, 5 days, mortality
Method: Translaminar Activity Against Aphis craccivora (Cowpea Aphid) French bean leaves (Phaseolus vulgaris) are infested with about 20 mixed age individuals on the lower leaf side using clip cages. 1 day after the infestation, the upper side of the leaves is treated with the test solution by painting. 5 days later, samples are checked for mortality.

[4] = tested on: Myzus persicae (green peach aphid); experiment: Example B13: drench activity against Myzus persicae; type: in vivo; conditions: 168 h, pea seedlings in field soil, 7 days after infestation, mortality
Method: Drench Activity Against Myzus persicae (Green Peach Aphid) Pea seedlings cultivated in field soil are treated as drench application and infested with a mixed population of M. persicae. 7 days after infestation, samples are checked for mortality.

[5] = tested on: Myzus persicae (green peach aphid); experiment: Example B1: Myzus persicae, mixed population, feeding/residual contact activity, preventive; conditions: foliar, 144 h, read-out: activity
[6] = tested on: Tetranychus urticae (two-spotted spider mite); experiment: Example B4: Tetranychus urticae, mixed population, feeding/residual contact activity, preventive; type: in vivo; conditions: foliar, 192 h, bean leaf discs sprayed, 8 days, egg, larval and adult mortality
Excerpt: Activity Against Tetranychus urticae (Two-Spotted Spider Mite) (Mixed Population, Feeding/Residual Contact Activity, Preventive) Bean leaf discs on agar in 24-well microtiter plates are sprayed with test solutions. […] 8 days later, discs are checked for egg mortality, larval mortality, and adult mortality.

[7] = tested on: Myzus persicae (green peach aphid); experiment: Example B16: Myzus persicae on pepper plants, feeding/residual contact activity; type: in vivo; conditions: 144 h, infested pepper plants sprayed, 6 days after treatment, mortality, read-out: activity against Myzus persicae
[8] = tested on: Myzus persicae (green peach aphid); experiment: Example B2: Myzus persicae, mixed population, systemic/feeding activity, curative; conditions: 144 h, read-out: activity
[9] = tested on: Thrips Tabaci (onion thrips); experiment: Example B3: Thrips tabaci, mixed population, feeding/residual contact activity, preventive; type: in vivo; conditions: foliar, 144 h, sunflower leaf discs sprayed, 6 days incubation, mortality

- melting point: 158 to 159 °C
SMILES: CCOC(=O)OC1=C(c2cc(C)c(C)cc2Br)C(=O)N(C)C12CCN(OC)CC2 [P1.20]

SMILES: COCCN1C(=O)C(c2c(C)cc(C)cc2C)=C(O)C12CCN(OC)CC2 [P2.7]
- pest or weed control at 400 ppm [1]: > 80%
- pest or weed control at 400 ppm [2]: > 80%
- pest or weed control at 400 ppm [3]: > 80%
- pest or weed control at 25 ppm [4]: > 80%
- pest or weed control at 400 ppm [5]: > 80%

- melting point: 191 to 193 °C
SMILES: CON1CCC2(CC1)C(O)=C(c1cc(C)c(C)cc1Br)C(=O)N2C [P2.23]

SMILES: COCOCCN1C(=O)C(c2c(C)cc(C)cc2C)=C(O)C12CCN(OC)CC2 [P2.21]
- pest or weed control at 400 ppm [6]: > 80%
- pest or weed control at 200 ppm [7]: ≥ 80%
- pest or weed control at 400 ppm [8]: > 80%
- pest or weed control at 400 ppm [5]: > 80%

SMILES: CON1CCC2(CC1)C(O)=C(c1c(C)cc(C)c(Cl)c1C)C(=O)N2C [P2.31]
- pest or weed control at 400 ppm [6]: > 80%
- pest or weed control at 200 ppm [7]: ≥ 80%
- pest or weed control at 400 ppm [8]: > 80%
- pest or weed control at 400 ppm [5]: > 80%

SMILES: CCOC(=O)OC1=C(c2c(C)cc(C)cc2Br)C(=O)N(C)C12CCN(OC)CC2 [P1.11]
- pest or weed control at 400 ppm [1]: > 80%
- pest or weed control at 400 ppm [2]: > 80%
- pest or weed control at 400 ppm [3]: > 80%
- pest or weed control at 25 ppm [4]: > 80%
- pest or weed control at 200 ppm [7]: ≥ 80%
- pest or weed control at 400 ppm [8]: > 80%
- pest or weed control at 400 ppm [5]: > 80%

SMILES: CON1CCC2(CC1)NC(=O)C(c1c(C)cc(C)cc1C)=C2OCc1ccccc1 [P3.4, 4-benzyloxy-8-methoxy-3-(2,4,6-trimethyl-phenyl)-1,8-diaza-spiro[4.5]dec-3-en-2-one]
- pest or weed control at 400 ppm [9]: > 80%
- pest or weed control at 400 ppm [6]: > 80%

SMILES: COc1ccc(COC2=C(c3cc(C)ccc3C)C(=O)NC23CCN(OC)CC3)cc1 [P3.2]
- pest or weed control at 400 ppm [9]: > 80%

- melting point: 121 to 123 °C
SMILES: CON1CCC2(CC1)C(O)=C(c1cc(C)ccc1C)C(=O)N2C [P2.1]

SMILES: CCOC(=O)OC1=C(c2cc(C)c(Cl)cc2C)C(=O)N(C)C12CCN(OC)CC2 [P1.28]
- pest or weed control at 400 ppm [9]: > 80%

SMILES: COCCCN1C(=O)C(c2c(C)cc(C)cc2C)=C(O)C12CCN(OC)CC2 [P2.20]
- pest or weed control at 400 ppm [9]: > 80%
- pest or weed control at 400 ppm [6]: > 80%
- pest or weed control at 400 ppm [8]: > 80%
- pest or weed control at 400 ppm [5]: > 80%

- melting point: 101 to 103 °C
SMILES: CCOC(=O)OC1=C(c2c(C)cc(C)cc2C)C(=O)N(CC)C12CCN(OC)CC2 [P1.8]

SMILES: COc1cc(COC2=C(c3cc(C)ccc3C)C(=O)NC23CCN(OC)CC3)cc(OC)c1OC [P3.1]
- pest or weed control at 400 ppm [9]: > 80%

- melting point: 149 to 150 °C
SMILES: CCOC(=O)OC1=C(c2cc(C)c(C)cc2Cl)C(=O)N(C)C12CCN(OC)CC2 [P1.22]

- melting point: 191 to 192 °C
SMILES: CON1CCC2(CC1)C(O)=C(c1cc(C)c(C)cc1Cl)C(=O)N2C [P2.26, 3-(2-Chloro-4,5-dimethyl-phenyl)-4-hydroxy-8-methoxy-1-methyl-1,8-diaza-spiro[4.5]dec-3-en-2-one]

- melting point: 223 to 225 °C
SMILES: CON1CCC2(CC1)C(O)=C(c1c(C)cc(C)cc1C)C(=O)N2CC1CC1 [P2.8, 1-Cyclopropylmethyl-4-hydroxy-8-methoxy-3-(2,4,6-trimethyl-phenyl)-1,8-diaza-spiro[4.5]dec-3-en-2-one]

- melting point: 96 to 110 °C
SMILES: CCOC(=O)OC1=C(c2cc(C)ccc2C)C(=O)N(C)C12CCN(OC)CC2 [P1.1]

- melting point: 183 to 186 °C
SMILES: CON1CCC2(CC1)C(O)=C(c1cc(C)c(C)cc1C)C(=O)N2C [P2.25]

SMILES: CCOC(=O)OC1=C(c2c(C)cc(C)cc2C)C(=O)N(CC2CC2)C12CCN(OC)CC2 [P1.5]
- pest or weed control at 400 ppm [6]: > 80%
- pest or weed control at 400 ppm [1]: > 80%
- pest or weed control at 400 ppm [3]: > 80%
- pest or weed control at 200 ppm [7]: ≥ 80%

SMILES: CON1CCC2(CC1)C(O)=C(c1c(C)cc(C)cc1Br)C(=O)N2C [P2.14]
- pest or weed control at 400 ppm [6]: > 80%
- pest or weed control at 400 ppm [1]: > 80%
- pest or weed control at 400 ppm [2]: > 80%
- pest or weed control at 400 ppm [3]: > 80%
- pest or weed control at 25 ppm [4]: > 80%
- pest or weed control at 400 ppm [5]: > 80%

- melting point: 218 to 221 °C
SMILES: CCN1C(=O)C(c2c(C)cc(C)cc2C)=C(O)C12CCN(OC)CC2 [P2.11]
